Reference: US12215095B2, “Compounds for the treatment of respiratory diseases” (Tianli Biotech Pty Ltd, priority 2018, dated 2025)
Marks after values point to notes of the source that are not given here.

Legend:
TGF-β-induced IL-11 = experiment: Human parenchymal fibroblast cell assay: inhibition of TGF-β-induced IL-11 (ELISA); format: cell-based; conditions: primary human parenchymal fibroblasts, 100 pM TGF-β1, 16-24 hours, 4.00 is assigned to compounds that failed to cause 50% or more inhibition at 100 µM; for IC50: Fibroblast, read-out: pIC50 IL-11 suppression (converted)
Method: Primary human parenchymal fibroblast cells (pFbs) were cultured from parenchyma of lung resection specimens and from non-transplanted lungs of donors without chronic respiratory disease. pFbs were passaged in Dulbecco's Modified Eagle's Media (DMEM) containing 10% (v/v) heat-inactivated fetal calf serum (FCS), 15 mM HEPES, 0.2% (v/v) sodium bicarbonate, 2 mM L-glutamine, 1% (v/v) non-essential amino acids, 1% (v/v) sodium pyruvate, 2.5 μg/mL amphotericin, 5 IU/mL penicillin and 50 μg/mL streptomycin.
Prior to experimentation, pFb were incubated in serum-free DMEM containing 0.25% bovine serum albumin (BSA) and insulin-transferrin-selenium-containing supplement (Monomed A; CSL, Parkville, Melbourne, Australia). The cells were incubated with small molecular CK1δelta inhibitors (0.1-10 μM) for 30 min prior to 100 pM TGF-β1 (R&D Systems, Minneapolis, MN) and the incubation continued for 16-24 hours prior to harvest of supernatant for detection of immunoreactive IL-11. Stock solutions were made as 10 mM in 100% DMSO and diluted to the required concentration in medium containing 0.1% DMSO (final concentration).
Supernatants were collected for measurement of IL-11 (R&D DuoSet, DY218) by ELISA following the manufacturers' instructions. Generally, capture antibodies were initially diluted to the recommended concentrations using PBS buffer, and then used to coat the wells of 96-well microplates (Greiner, #655061) by adding 50 μL/well and incubated overnight at room temperature. Next day, solutions were discarded and wells were washed 3 times with wash buffer (PBS containing 0.1% (v/v) Tween-20) prior to the addition of 200 μL of blocking solution (PBS containing 1% (v/v) BSA) for 1 hour to block non-specific sites. Plates were then washed 3 times with wash buffer and 50 μL of samples or standards were then added to wells and incubated for 2 hours at room temperature. After the incubation, plates were washed 3 times with wash buffer and 50 μL of detection antibodies were added to wells and incubated for 2 hours at room temperature. Plates were then washed 3 times before adding streptavidin-conjugated horseradish peroxidase (at the recommended concentrations) for 45 min. Plates were then washed 5 times with wash buffer and 100 μL TMB substrate solution (equal parts A and B, BD Biosciences) was added to each well until sufficient signals emerged. The reactions were inactivated by adding 100 μL sulphuric acid (2M H2SO4). The absorbance was measured at 450 nm using the Multiskan Ascent® plate reader. The absorbance of the cytokine standards was fitted to a logistic equation, allowing the concentrations of cytokine in samples to be determined.
pIC50 values (the negative log of the concentration suppressing IL-11 level by 50%) for inhibition of TGF-β-induced IL-11 were interpolated from the linear regression of log concentration small molecule versus IL-11 level (Table 4 and FIG. 2).

casein kinase 1δ = casein kinase 1δ (Homo sapiens (Human), UniProt P48730); experiment: Kinase inhibition assay (HotSpot assay, Reaction Biology Corp); format: biochemical; conditions: 10 μM ATP, 10-dose IC50 mode, 3-fold serial dilution starting at 10 μM; for IC50: read-out: CK1δ IC50; for pIC50: casein kinase 1δ
Chain of casein kinase 1δ (P48730 whole entry): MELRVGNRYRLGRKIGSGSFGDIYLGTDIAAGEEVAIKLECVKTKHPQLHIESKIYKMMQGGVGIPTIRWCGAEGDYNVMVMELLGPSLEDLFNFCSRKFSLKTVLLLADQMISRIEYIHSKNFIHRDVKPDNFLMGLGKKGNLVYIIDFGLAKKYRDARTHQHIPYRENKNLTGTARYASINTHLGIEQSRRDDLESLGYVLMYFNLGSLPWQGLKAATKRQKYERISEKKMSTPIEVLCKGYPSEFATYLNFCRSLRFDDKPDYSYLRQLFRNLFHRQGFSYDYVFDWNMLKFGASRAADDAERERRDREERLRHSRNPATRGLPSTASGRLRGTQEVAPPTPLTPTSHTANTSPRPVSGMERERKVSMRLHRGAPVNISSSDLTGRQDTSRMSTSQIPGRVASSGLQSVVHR

IC50 (casein kinase 1δ)	pIC50 (casein kinase 1δ)	Compound	IC50 (TGF-β-induced IL-11)	pIC50 IL-11 suppression (TGF-β-induced IL-11)
–	6.57	C[C@H](Nc1nccc(-c2c(-c3ccc(F)cc3)ncn2C2CCCCC2)n1)C1CCCCC1 [ZH3-90, (S)-4-(1-Cyclohexyl-4-(4-fluorophenyl)-1H-imidazol-5-yl)-N-(1-cyclohexylethyl)pyrimidin-2-amine]	> 100000 nM	–
1.93 nM	8.71	Fc1ccc(-c2ncn(C3CCCCC3)c2-c2ccnc(NCc3ccccn3)n2)cc1 [ZH2-130, 4-(1-Cyclohexyl-4-(4-fluorophenyl)-1H-imidazol-5-yl)-N-(pyridin-2-ylmethyl)pyrimidin-2-amine(2-picolyl)]	724 nM	–
34.4 nM	7.46	C[C@@H](Nc1nccc(-c2c(-c3ccc(F)cc3)ncn2C2CCCCC2)n1)C1CCCCC1 [ZH3-94, (R)-4-(1-Cyclohexyl-4-(4-fluorophenyl)-1H-imidazol-5-yl)-N-(1-cyclohexylethyl)pyrimidin-2-amine]	912 nM	–
2.97 nM	8.53	Fc1ccc(-c2ncn(C3CCCCC3)c2-c2ccnc(NCC3CCC(F)(F)CC3)n2)cc1 [ZH3-74, 4-(1-Cyclohexyl-4-(4-fluorophenyl)-1H-imidazol-5-yl)-N-((4,4-difluorocyclohexyl)methyl)pyrimidin-2-amine]	6760 nM	–
2.54 nM	8.59	Fc1ccc(-c2ncn(C3CCCCC3)c2-c2ccnc(NCCCc3ccccc3)n2)cc1 [ZH3-98, 4-(1-Cyclohexyl-4-(4-fluorophenyl)-1H-imidazol-5-yl)-N-(3-phenylpropyl)pyrimidin-2-amine]	2000 nM	–

The remaining lines, values behind:

Compound	IC50 (casein kinase 1δ)	pIC50 (casein kinase 1δ)	IC50 (TGF-β-induced IL-11)	pIC50 IL-11 suppression (TGF-β-induced IL-11)
Fc1ccc(-c2ncn(C3CCCCC3)c2-c2ccnc(NCC3CCCCC3)n2)cc1 [ZH2-98, 4-(1-Cyclohexyl-4-(4-fluorophenyl)-1H-imidazol-5-yl)-N-(cyclohexylmethyl)pyrimidin-2-amine]	12.6 nM	7.91	1780 nM	–
Fc1ccc(-c2ncn(C3CCCCC3)c2-c2ccnc(NCC3CCOCC3)n2)cc1 [ZH2-102, 4-(1-Cyclohexyl-4-(4-fluorophenyl)-1H-imidazol-5-yl)-N-((tetrahydro-2H-pyran-4-yl)methyl)pyrimidin-2-amine]	1.7 nM	8.77	407 nM	–
FCn1cnc(-c2ccc(F)cc2)c1-c1ccnc(NCCCc2ccccc2)n1 [ZH2-122]	5.07 nM	–	–	–
CC(C)(F)n1cnc(-c2ccc(F)cc2)c1-c1ccnc(NCC2CCC(F)(F)CC2)n1 [ZH2-62]	–	7.42	–	< 4.00*
Fc1ccc(-c2ncn(C3CCCCC3)c2-c2ccnc(NCc3ccc(-c4ccccc4)cc3)n2)cc1 [ZH2-66, N-([1,1′-Biphenyl]-4-ylmethyl)-4-(1-cyclohexyl-4-(4-fluorophenyl)-1H-imidazol-5-yl)pyrimidin-2-amine]	–	5.86	> 100000 nM	–
Fc1ccc(-c2ncn(C3CCCCC3)c2-c2ccnc(NCC3CCCC3)n2)cc1 [ZH2-86, 4-(1-Cyclohexyl-4-(4-fluorophenyl)-1H-imidazol-5-yl)-N-(cyclopentylmethyl)pyrimidin-2-amine]	7.16 nM	8.15	1910 nM	–
